The values that follow are results of earlier work, collected in patent US10968484B2, “Methods of identifying responses to map kinase inhibition therapy” (The Broad Institute, Inc., priority 2013, dated 2021).

Like-named read-outs stand apart in the source and are kept apart here.

This data set deals with BRAF_V600-mutant melanomas (cell lines). Particulars: read-out: PLX4720 IC50.

As usually defined, the IC50 is the concentration at which inhibition is half-maximal. For `CCCS(=O)(=O)Nc1ccc(F)c(C(=O)c2c[nH]c3ncc(Cl)cc23)c1F` [PLX4720], the IC50 is ≥ 8 µM (resistance class of BRAF_V600-mutant melanoma cell lines) and < 1.6 µM (sensitive class of BRAF_V600-mutant melanoma cell lines).
